Laboratory results published in paper PMC8909594, “Direct Interaction of Mitochondrial Cytochrome c Oxidase with Thyroid Hormones: Evidence for Two Binding Sites” (Cells, 2022).
Where “and” joins values, the source holds several entries; their conditions need not be identical. Identical values can stand only once. Entries after “also recorded” stand apart in the source; their conditions may differ. Like-named read-outs stand apart in the source and are kept apart here.

Key:
[1] = tested on: cytochrome c oxidase (CcO); experiment: Catalase activity of CcO (oxygen release from H2O2); details: higher hormone concentration (curve 4, 1 mM)
Procedure: The catalase activity of CcO was detected by a Clark-type electrode in the presence of excess hydrogen peroxide, in 30 mM potassium-phosphate buffer, pH 7.1 supplemented with 2 mM EDTA and 0.05% DM, as described in [26].

[2] = tested on: cytochrome c oxidase (electron transfer from heme a to heme a3); experiment: Level and kinetics of heme a / heme a3 reduction in CcO; details: pH 8.0, 5 μM RuAm, 5 mM ascorbate
Procedure: The kinetics of spectral changes were monitored on spectrophotometer SLM Aminco DW-2000 (SLM Instruments, Urbana, IL, USA) in dual-wavelength mode.
The oxidase reaction was carried out using ascorbate (as an electron source) in combination with the redox mediators RuAm and TMPD. The reduction of CcO was monitored spectrophotometrically.
The total reduction level of hemes a and a3 was registered. […] The other conditions were as in panel (A) except that 0.1 mM TMPD was used instead of RuAm.

[3] = target: mitochondrial cytochrome c oxidase (CcO) (Bos taurus, UniProt P00426); experiment: Superoxide generation by CcO in excess H2O2 (WST-1 reduction)
Procedure: The reaction of superoxide generation catalyzed by CcO in the presence of excess hydrogen peroxide was assayed in the basic medium, pH 7.6 by the classic method [27], monitoring the superoxide dismutase-sensitive reduction of tetrazolium salts to formazan.
Addition of 0.4 µM T4 is indicated. CcO was added up to 0.5 μM to the experimental medium, supplemented with 0.1 mM WST-1. The reaction was initiated by addition of 4 mM H2O2 (indicated by the arrow). […] Conditions of the measurements are as in panel (A).

[4] = tested on: T1, xanthine oxidase from bovine milk; experiment: Superoxide formation by xanthine oxidase oxidizing hypoxanthine (test for superoxide dismutase activity); format: biochemical; details: hypoxanthine 50 μM, XOx 0.015 units/mL; 500 μM T4; SOD 20 μg/mL
T1 construct: xanthine oxidase from bovine milk; purchased Sigma-Aldrich; host or cells: bovine milk
Excerpt: The conditions were adjusted so that the rate of WST reduction was approximately the same as in panel (A).

[5] = target: T2, CcO in SMP obtained from bovine heart mitochondria (Bos taurus, UniProt P00396+P68530); experiment: CcO oxidase activity in bovine heart submitochondrial particles (SMP); format: biochemical
T2 construct: Then, CcO in the native mitochondrial membrane was investigated; from tissue; host or cells: bovine heart submitochondrial particles
Procedure: Preparation of bovine heart submitochondrial particles (SMP). The heavy fraction of bovine heart mitochondria was suspended in 40 mL of 0.3 M sucrose supplemented with 5 mM MgSO4, 1 mM succinate, 1 mM ATP and 10 mM Hepes, pH 8.0. […] Mitochondrial debris was removed by centrifugation for 12 min at 15,000 rpm (Beckman JA-20, Brea, CA, USA). SMP were precipitated from supernatant at 100,000 g for 1 h, washed by 0.3 M sucrose with 10 mM Hepes, pH 7.5 and precipitated as previously described. The final precipitate was suspended in a small volume of the same buffer and frozen. To determine the CcO concentration in the sample, a small amount of SMP was solubilized in 50 mM Hepes/Tris buffer, pH 7.6 containing 1% DM.

[6] = tested on: T3, cytochrome c oxidase (CcO); experiment: Peroxidase activity of CcO (ferrocyanide peroxidation); format: biochemical, Bos taurus; details: for rate of peroxidase reaction: 0.5 mM hormone, control 0.19 e−/s, error about 10%
T3 construct: Cytochrome c oxidase (CcO) was purified from heart mitochondria of Bos taurus; from tissue; host or cells: bovine heart mitochondria
Procedure: To obtain a redox buffer with Em ≈ 420 mV, equal amounts of ferri- and ferrocyanide were mixed. To facilitate the interaction of ferrocyanide with CcO, 0.2 μM cytochrome c was present.
Peroxidation of ferrocyanide (0.2 mM) was monitored in the presence of 0.6 μM CcO. […] Trace 1, black = control; trace 2, red = the experiment in the presence of 1 mM T4; trace 3, blue = 1 mM T4 added in the course of the experiment, as indicated.

[7] = target: CcO incorporated into azolectin vesicles (proteoliposomes) (Bos taurus, UniProt P00396+P68530); experiment: Oxidase activity of CcO in proteoliposomes, oxygen consumption
Procedure: First, the effect of thyroid hormones on CcO incorporated into azolectin vesicles was studied. The activity was assayed in the same way as in solution except for the absence of detergent and presence of protonophore in the medium (see Section 2).

[8] = tested on: T4, oxidized cytochrome c oxidase (CcO); experiment: Formation of CcO oxoferryl intermediates FI-607 and FII-580 with H2O2 (titration, stopped-flow); format: biochemical, Bos taurus
T4 construct: Cytochrome c oxidase (CcO) was purified from heart mitochondria of Bos taurus; from tissue; host or cells: bovine heart mitochondria
Procedure: Stopped-flow experiments were performed using a stopped-flow spectrophotometer (Applied Photophysics SX-20, Leatherhead, UK) operated in the diode array mode, using a 20-μL cell with a 1-cm optical pathway.
Oxoferryl intermediates’ formation was monitored using stopped-flow techniques. CcO in the basic medium, pH 8.1 supplemented with 0.1% DM, 0.05 mM ferricyanide and when necessary, T4 was rapidly mixed with an equal volume of the same buffer containing H2O2.
We carried out such a titration to evaluate the effects of thyroid hormones on the equilibrium of oxoferryl intermediates.
Figure 6 Effect of T4 on the formation of CcO oxoferryl intermediates during the reaction with H2O2. The reaction was followed using a diode array spectrophotometer. […] (A, B) Kinetics of the oxoferryl intermediates’ formation. […] (A) Control; (B) CcO was pre-incubated with 0.5 mM T4 until mixing.

[9] = target: T5, solubilized cytochrome c oxidase (CcO) from bovine heart mitochondria (Bos taurus, UniProt P00396+P68530); experiment: Oxidase activity of solubilized CcO, oxygen consumption (Clark-type electrode); format: biochemical; details: for Kd: read-out: Kc, dissociation constant of the DM-CcO complex
T5 construct: Cytochrome c oxidase (CcO) was purified from heart mitochondria of Bos taurus; from tissue; host or cells: bovine heart mitochondria
Excerpt: Preparations. Cytochrome c oxidase (CcO) was purified from heart mitochondria of Bos taurus. […] CcO was isolated according to a modified method of Fowler et al. [21] described previously [22].

[10] = target: solubilized CcO from mitochondria; details: read-out: Kc (dissociation constant for DM), cited from earlier work
mitochondrial CcO = tested on: mitochondrial CcO; set-up: method as in PMID 8013649; details: 0.2 μM enzyme; cited from earlier work
CcO in proteoliposomes = tested on: T6, CcO in proteoliposomes; experiment: Ferrocytochrome c oxidation by CcO in proteoliposomes; format: biochemical, Bos taurus
T6 construct: Cytochrome c oxidase (CcO) was purified from heart mitochondria of Bos taurus; from tissue; host or cells: bovine heart mitochondria
Procedure: CcO reconstruction into phospholipid vesicles.
Cytochrome c was reduced beforehand by dithionite.
Figure 2 Inhibitory effect of thyroid hormones on the oxidase activity of the membrane-incorporated CcO. […] Proteoliposomes were added to the experimental medium up to 26 nM CcO. The oxidase reaction was initiated by addition of the respiratory substrate. Other details are as in Figure 1B,D. (D) T3-induced inhibition of ferrocytochrome c oxidation by CcO in proteoliposomes. […] Other conditions are as in panel (A) except that proteoliposomes were added to the medium up to 3.25 nM CcO and pre-incubated for 30 min before adding the respiratory substrate. […] Mitochondria were suspended in the experimental medium up to 0.8 mg of protein/mL. Other details are as in Figure 1B,D. (F) Inhibitory effect of T4 on CcO oxidase activity in SMP obtained from bovine heart mitochondria. The conditions were essentially as in panel (E) except that the CcO concentration was 20 nM.

Compound: N[C@@H](Cc1cc(I)c(Oc2cc(I)c(O)c(I)c2)c(I)c1)C(=O)O [T4, L-3,5,3′,5′tetraiodo-thyronine]
- suppression of catalase activity [1]: 10–20%
- increase of steady-state level of heme a reduction over control ([2]; 1 mM hormone): ~ 50%
- Ki [3]: 0.3 µM
- drop of the rate of WST-1 reduction (superoxide production) ([3]; 0.4 μM T4): drops threefold
- effect on the rate of dye (WST) reduction [4]: does not affect the rate of dye reduction
- extent of inhibition [5]: complete inhibition
- Ki ([5]; 20 nM CcO): 2200 ± 200 µM
- rate of peroxidase reaction [6]: 0.22 e^−/s
- effect on the rate of ferrocyanide peroxidation ([6]; 1 mM T4, 0.6 μM CcO, 4 mM H2O2): does not noticeably change; also recorded: complete resistance
- Ki [7]: 310 µM
- deviation of FI-607 (lower) and FII-580 (higher) concentration from control ([8]; 0.5 mM T4, 15 s after mixing): about 10%
- acceleration of formation of FII-580 (form 580) ([8]; 0.5 mM hormone): 23% and 20–25%
- decrease in the quasi-stationary concentration ratio [FI-607]/[FII-580] vs control ([8]; 0.5 mM hormone, titration of oxidized CcO with peroxide): 15–25%
- decrease of the rate of oxygen consumption ([9]; […] T4, 20 nM CcO): approximately two times
- extent of inhibition of enzyme activity ([9]; lowest tested DM concentrations (0.02% and 0.05%)): 70–80%
- Ki ([9]; oxygen consumption, pH 7.6, 25 °C, from linear dependence of Ki(app) on [DM] 0.4–10 mM, DM=0, read-out: true inhibition constant Ki (in the absence of DM)): ~100 µM and 100 µM
- Ki ([9]; solubilized enzyme, Figure 1C,E, read-out: Ki): ~100 µM

Compound: CCCCCCCCCCCCO[C@@H]1O[C@H](CO)[C@@H](O[C@H]2O[C@H](CO)[C@@H](O)[C@H](O)[C@H]2O)[C@H](O)[C@H]1O [DM, dodecyl-maltoside]
- Kd ([10]; from study of CcO inhibition by Triton X-100): 1200 µM
- Kd ([10]; from study of CcO inhibition by estradiol): 1470 µM
- Kd ([10]; from study of CcO inhibition by testosterone): 1300 µM
- Kd ([9]; from competition with T3 (T3=0)): ~1120 µM
- Kd ([9]; from competition with T4 (T4=0)): ~1100 µM

Compound: N[C@@H](Cc1cc(I)c(Oc2ccc(O)cc2)c(I)c1)C(=O)O [T2, 3,5-diiodo-thyronine]
- rate of peroxidase reaction [6]: 0.21 e^−/s
- concentration from which effects of T2 start (mitochondrial CcO): 10^−7 M

Compound: N[C@@H](Cc1cc(I)c(Oc2ccc(O)c(I)c2)c(I)c1)C(=O)O [T3, L-3,5,3′-triiodide-thyronine]
- increase of steady-state level of heme a reduction over control ([2]; 1 mM hormone): ~ 75%
- increase of steady-state level of heme a reduction over control ([2]; 2 mM hormone): ~ 115%
- time of enzyme activity after which inhibition develops (CcO in proteoliposomes; 0.5 mM T3 (~450 turnovers)): 10 s
- decrease in the activity compared to the control (CcO in proteoliposomes; 0.5 mM T3, pre-incubation 30 min, 3.25 nM CcO): approximately twofold decrease

Compound: superoxide dismutase: superoxide dismutase from bovine erythrocytes, control blocking WST reduction
- effect on the rate of dye (WST) reduction [4]: completely blocked
